According to patent publication US10689378B2, “Triazolopyridine compounds and uses thereof” (Novartis AG, priority 2016, dated 2020):
Values belong to the compound of their own block, whether it stands above or below them.

Tests used:
EED (1-441)-His protein = target: T1, EED (1-441)-His protein (Homo sapiens, UniProt O75530); experiment: EED-H3K27Me3 peptide competition binding assay by AlphaScreen; details: EED-H3K27Me3 peptide competition, AlphaScreen; read-out: (a) IC50 EED Alphascreen binding Qualified
T1 construct: 30 nM EED (1-441)-His protein
T1 sequence (O75530 whole entry): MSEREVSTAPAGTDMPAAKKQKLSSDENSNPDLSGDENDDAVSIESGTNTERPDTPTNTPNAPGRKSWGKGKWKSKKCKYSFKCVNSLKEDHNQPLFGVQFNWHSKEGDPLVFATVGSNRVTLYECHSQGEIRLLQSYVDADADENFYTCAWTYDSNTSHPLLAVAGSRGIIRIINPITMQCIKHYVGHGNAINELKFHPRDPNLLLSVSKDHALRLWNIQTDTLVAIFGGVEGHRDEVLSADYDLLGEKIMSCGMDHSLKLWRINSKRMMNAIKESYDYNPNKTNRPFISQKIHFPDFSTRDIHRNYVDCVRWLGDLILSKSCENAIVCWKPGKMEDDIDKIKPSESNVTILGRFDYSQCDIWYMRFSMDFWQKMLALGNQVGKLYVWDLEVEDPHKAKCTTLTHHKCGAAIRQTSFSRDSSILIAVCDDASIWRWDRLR
In short: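 Serially diluted compound (12 points, 3-fold) incubated 20 min with 30 nM EED(1-441)-His and 15 nM biotin-H3K27Me3(19-33) peptide in 25 mM HEPES pH 8, 0.02% Tween-20, 0.5% BSA. Ni-chelate acceptor/streptavidin donor beads (10 μg/mL each) added, 1 h rt dark; 615 nm emission normalized to controls, dose-response fit for IC50.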

[1] = system: H3K27 methylation in G401 cell; experiment: ELISA (H3K27 methylation) assay in G401 cells; format: cell-based, human; details: Homo sapiens, G-401, H3K27 methylation ELISA, read-out: (c) IC50 ELISA Qualified
In short: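 IC50 from dose-response fit of percent inhibition relative to DMSO, using H3K27me3/me2 ELISA signal (ECL) normalized to histone H3. Histones HCl-extracted after 48 h compound exposure of G401 cells at up to 20 μM, 8- or 12-point 3-fold series.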

[2] = target: wild type PRC2 (wtPRC2) complex (Homo sapiens, UniProt O75530); experiment: EED LC-MS assay (SAH production by PRC2); format: biochemical; details: PRC2 LC-MS assay; read-out: (b) IC50 EED LC-MS Qualified
Chain of wild type PRC2 (wtPRC2) complex (O75530 whole entry): as above
Chain of wild type PRC2 (wtPRC2) complex (Q15910 whole entry partner): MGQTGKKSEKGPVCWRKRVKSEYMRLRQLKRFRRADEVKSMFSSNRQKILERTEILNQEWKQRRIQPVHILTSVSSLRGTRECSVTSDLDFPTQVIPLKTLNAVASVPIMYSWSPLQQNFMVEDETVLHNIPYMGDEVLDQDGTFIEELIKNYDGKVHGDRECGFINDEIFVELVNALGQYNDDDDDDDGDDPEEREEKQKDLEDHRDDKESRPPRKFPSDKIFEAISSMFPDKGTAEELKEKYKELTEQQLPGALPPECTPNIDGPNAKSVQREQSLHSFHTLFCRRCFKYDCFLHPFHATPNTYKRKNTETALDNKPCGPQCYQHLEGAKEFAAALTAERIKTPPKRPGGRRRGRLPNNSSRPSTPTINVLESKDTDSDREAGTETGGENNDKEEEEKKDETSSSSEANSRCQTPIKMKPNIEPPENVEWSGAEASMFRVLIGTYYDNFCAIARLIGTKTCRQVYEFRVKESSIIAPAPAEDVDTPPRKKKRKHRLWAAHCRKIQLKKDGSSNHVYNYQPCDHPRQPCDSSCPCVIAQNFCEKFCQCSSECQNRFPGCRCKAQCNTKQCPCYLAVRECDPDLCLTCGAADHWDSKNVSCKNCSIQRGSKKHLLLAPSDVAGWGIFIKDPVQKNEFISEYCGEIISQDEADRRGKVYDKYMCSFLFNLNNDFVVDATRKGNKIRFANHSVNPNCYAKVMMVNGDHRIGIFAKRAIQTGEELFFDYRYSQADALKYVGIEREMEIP
Chain of wild type PRC2 (wtPRC2) complex (Q15022 whole entry partner): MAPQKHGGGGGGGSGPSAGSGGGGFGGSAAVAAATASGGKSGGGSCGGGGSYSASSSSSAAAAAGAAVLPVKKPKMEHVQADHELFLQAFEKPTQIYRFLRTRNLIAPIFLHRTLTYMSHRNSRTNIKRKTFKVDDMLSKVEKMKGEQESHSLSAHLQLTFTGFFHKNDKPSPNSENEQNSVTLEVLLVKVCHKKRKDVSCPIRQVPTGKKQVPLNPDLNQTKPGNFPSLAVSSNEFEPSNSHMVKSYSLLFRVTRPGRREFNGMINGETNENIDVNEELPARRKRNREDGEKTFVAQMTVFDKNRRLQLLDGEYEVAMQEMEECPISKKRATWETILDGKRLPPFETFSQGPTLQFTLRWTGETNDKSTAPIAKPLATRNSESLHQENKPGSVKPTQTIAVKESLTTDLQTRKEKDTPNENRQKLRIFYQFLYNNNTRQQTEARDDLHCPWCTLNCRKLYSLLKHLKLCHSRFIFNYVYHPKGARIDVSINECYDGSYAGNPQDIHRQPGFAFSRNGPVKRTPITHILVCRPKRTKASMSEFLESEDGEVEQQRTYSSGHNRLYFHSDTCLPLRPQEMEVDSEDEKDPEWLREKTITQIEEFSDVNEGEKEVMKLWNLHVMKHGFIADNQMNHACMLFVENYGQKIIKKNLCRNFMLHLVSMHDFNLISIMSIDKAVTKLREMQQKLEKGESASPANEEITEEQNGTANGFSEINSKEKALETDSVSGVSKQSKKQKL
Chain of wild type PRC2 (wtPRC2) complex (Q09028 whole entry partner): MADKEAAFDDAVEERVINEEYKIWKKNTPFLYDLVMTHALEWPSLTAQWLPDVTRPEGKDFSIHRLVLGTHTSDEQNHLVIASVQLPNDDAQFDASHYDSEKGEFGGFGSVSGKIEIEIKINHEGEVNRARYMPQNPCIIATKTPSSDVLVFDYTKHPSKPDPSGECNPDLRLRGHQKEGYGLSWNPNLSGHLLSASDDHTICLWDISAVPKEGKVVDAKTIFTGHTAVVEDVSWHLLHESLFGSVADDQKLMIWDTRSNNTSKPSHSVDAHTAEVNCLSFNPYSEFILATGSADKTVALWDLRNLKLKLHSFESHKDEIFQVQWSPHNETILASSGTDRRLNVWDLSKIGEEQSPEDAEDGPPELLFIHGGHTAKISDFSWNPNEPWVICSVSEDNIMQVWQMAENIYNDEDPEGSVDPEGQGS
Chain of wild type PRC2 (wtPRC2) complex (Q6ZN18 whole entry partner): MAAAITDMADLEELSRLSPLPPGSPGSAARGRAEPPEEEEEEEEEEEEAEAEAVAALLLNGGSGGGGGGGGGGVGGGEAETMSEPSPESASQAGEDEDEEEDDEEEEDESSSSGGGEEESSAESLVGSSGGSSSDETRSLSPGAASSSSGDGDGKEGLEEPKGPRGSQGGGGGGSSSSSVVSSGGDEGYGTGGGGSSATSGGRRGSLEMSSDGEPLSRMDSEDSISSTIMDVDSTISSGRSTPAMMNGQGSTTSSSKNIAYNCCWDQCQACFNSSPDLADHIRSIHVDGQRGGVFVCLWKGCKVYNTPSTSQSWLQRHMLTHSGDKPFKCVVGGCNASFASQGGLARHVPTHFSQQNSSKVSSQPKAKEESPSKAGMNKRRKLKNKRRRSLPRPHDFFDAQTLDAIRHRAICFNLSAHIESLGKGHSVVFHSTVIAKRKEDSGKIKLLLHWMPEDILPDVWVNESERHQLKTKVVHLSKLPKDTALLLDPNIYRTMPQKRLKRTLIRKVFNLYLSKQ
In short: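 LC-MS/MS readout of SAH (d4-SAH standard) after TFA quench gives PRC2 activity, normalized to controls and fitted to dose-response for IC50. Reaction: 12 nM EZH2/SUZ12/EED/Rbap48/AEBP complex, 1 μM SAM, 1.5 μM H3[21-44] peptide, 120 min rt, 20 min compound preincubation.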

SMILES: COc1cccc(F)c1CNc1ccc(-c2cnc(C(=O)N(C)C)cc2C)c2nncn12 [Example 252, 5-(5-((2-fluoro-6-methoxybenzyl)amino)-[1,2,4]triazolo[4,3-a]pyridin-8-yl)-N,N,4-trimethylpicolinamide]
IC50 (EED (1-441)-His protein): 14.1 nM | IC50 [1]: 4.4 nM | IC50 [2]: 7.9 nM

SMILES: COc1cccc(F)c1CNc1ccc(-c2ccc(CNC(C)=O)nc2)c2nncn12 [Example 256, N-((5-(5-((2-fluoro-6-methoxybenzyl)amino)-[1,2,4]triazolo[4,3-a]pyridin-8-yl)pyridin-2-yl)methyl) acetamide]
IC50 (EED (1-441)-His protein): 25.1 nM | IC50 [1]: 10.4 nM | IC50 [2]: 159 nM

SMILES: COc1cccc(F)c1CNc1ccc(-c2cnccc2C(F)F)c2nncn12 [Example 258, 8-(4-(difluoromethyl)pyridin-3-yl)-N-(2-fluoro-6-methoxybenzyl)-[1,2,4] triazolo [4,3-a]pyridin-5-amine]
IC50 (EED (1-441)-His protein): 24.5 nM | IC50 [1]: 16.7 nM | IC50 [2]: 71.6 nM

SMILES: COc1cccc(F)c1CNc1ccc(-c2cnc(N(C)C)nc2C)c2nncn12 [Example 260, 8-(2-(dimethylamino)-4-methylpyrimidin-5-yl)-N-(2-fluoro-6-methoxybenzyl)-[1,2,4]triazolo[4,3-a]pyridin-5-amine]
IC50 (EED (1-441)-His protein): 35.4 nM | IC50 [1]: 21.7 nM | IC50 [2]: 45.9 nM

SMILES: COc1cccc(F)c1CNc1ccc(-c2cccnc2C(F)F)c2nncn12 [Example 265, 8-(2-(difluoromethyl)pyridin-3-yl)-N-(2-fluoro-6-methoxybenzyl)-[1,2,4] triazolo[4,3-a]pyridin-5-amine]
IC50 (EED (1-441)-His protein): 14.1 nM | IC50 [1]: 7.1 nM | IC50 [2]: 6.3 nM

SMILES: COc1cccc(F)c1CNc1ccc(-c2ccc(N3CCOCC3)nc2C)c2nncn12 [Example 266, N-(2-fluoro-6-methoxybenzyl)-8-(2-methyl-6-morpholinopyridin-3-yl)-[1,2,4]triazolo[4,3-a]pyridin-5-amine]
IC50 (EED (1-441)-His protein): 8.9 nM | IC50 [1]: 9.9 nM | IC50 [2]: 56.2 nM

SMILES: COc1cccc(F)c1CNc1ccc(-c2cnc(Cl)cc2C)c2nncn12 [Example 267, 8-(6-chloro-4-methylpyridin-3-yl)-N-(2-fluoro-6-methoxybenzyl)-[1,2,4]triazolo[4,3-a] pyridin-5-amine]
IC50 (EED (1-441)-His protein): 17 nM | IC50 [1]: 14.6 nM | IC50 [2]: 75.8 nM

SMILES: COc1cccc(F)c1CNc1ccc(-c2cnc(C)cc2C)c2nncn12 [Example 268, 8-(4,6-dimethylpyridin-3-yl)-N-(2-fluoro-6-methoxybenzyl)-[1,2,4]triazolo[4,3-a] pyridin-5-amine]
IC50 (EED (1-441)-His protein): 19.4 nM | IC50 [1]: 21.4 nM | IC50 [2]: 34 nM

SMILES: COc1cccc(F)c1CNc1ccc(-c2ccc(C(=O)N(C)C)nc2C)c2nncn12 [Example 269, 5-(5-((2-fluoro-6-methoxybenzyl)amino)-[1,2,4]triazolo[4,3-a]pyridin-8-yl)-N,N,6-trimethylpicolinamide]
IC50 (EED (1-441)-His protein): 8.9 nM | IC50 [1]: 4.8 nM | IC50 [2]: 60.1 nM

SMILES: COc1cccc(F)c1CNc1ccc(-c2cnc(C3CC3)cc2C)c2nncn12 [Example 270, 8-(6-cyclopropyl-4-methylpyridin-3-yl)-N-(2-fluoro-6-methoxybenzyl)-[1,2,4]triazolo[4,3-a]pyridin-5-amine]
IC50 (EED (1-441)-His protein): 27.3 nM | IC50 [1]: 42.3 nM | IC50 [2]: 106 nM

SMILES: CCc1cc(S(C)(=O)=O)ccc1-c1ccc(NCc2c(F)cccc2OC)n2cnnc12 [Example 271, 8-(2-ethyl-4-(methylsulfonyl)phenyl)-N-(2-fluoro-6-methoxybenzyl)-[1,2,4]triazolo[4,3-a]pyridin-5-amine]
IC50 (EED (1-441)-His protein): 33.2 nM | IC50 [1]: 30 nM | IC50 [2]: 80.3 nM

SMILES: CCc1ccncc1-c1ccc(NCc2c(F)cccc2OC)n2cnnc12 [Example 272, 8-(4-ethylpyridin-3-yl)-N-(2-fluoro-6-methoxybenzyl)-[1,2,4]triazolo[4,3-a]pyridin-5-amine]
IC50 (EED (1-441)-His protein): 34.7 nM | IC50 [1]: 61.8 nM | IC50 [2]: 57.5 nM

SMILES: COc1cccc(F)c1CNc1ccc(-c2ccnc(F)c2C)c2nncn12 [Example 276, 8-(2-fluoro-3-methylpyridin-4-yl)-N-(2-fluoro-6-methoxybenzyl)-[1,2,4]triazolo[4,3-a] pyridin-5-amine]
IC50 (EED (1-441)-His protein): 13.9 nM | IC50 [1]: 8 nM | IC50 [2]: 50.5 nM

SMILES: COc1cccc(F)c1CNc1ccc(-c2cc(F)ncc2C)c2nncn12 [Example 279, 8-(2-fluoro-5-methylpyridin-4-yl)-N-(2-fluoro-6-methoxybenzyl)-[1,2,4] triazolo[4,3-a]pyridin-5-amine]
IC50 (EED (1-441)-His protein): 15.8 nM | IC50 [1]: 12.1 nM | IC50 [2]: 75.1 nM

SMILES: CCc1ncncc1-c1ccc(NCc2c(F)cccc2OC)n2cnnc12 [Example 280, 8-(4-ethylpyrimidin-5-yl)-N-(2-fluoro-6-methoxybenzyl)-[1,2,4]triazolo[4,3-a]pyridin-5-amine]
IC50 (EED (1-441)-His protein): 23.7 nM | IC50 [1]: 11.8 nM | IC50 [2]: 317 nM

SMILES: CCc1ncccc1-c1ccc(NCc2c(F)cccc2OC)n2cnnc12 [Example 283, 8-(2-ethylpyridin-3-yl)-N-(2-fluoro-6-methoxybenzyl)-[1,2,4]triazolo[4,3-a]pyridin-5-amine]
IC50 (EED (1-441)-His protein): 39.6 nM | IC50 [1]: 62.1 nM | IC50 [2]: 576 nM

SMILES: COc1cccc(F)c1CNc1ccc(-c2ccnc(C)c2C)c2nncn12 [Example 287, 8-(2,3-dimethylpyridin-4-yl)-N-(2-fluoro-6-methoxybenzyl)-[1,2,4]triazolo[4,3-a] pyridin-5-amine]
IC50 (EED (1-441)-His protein): 10.1 nM | IC50 [1]: 6.6 nM | IC50 [2]: 38.6 nM

SMILES: COc1cccc(F)c1CNc1ccc(-c2cc(C)nn2C)c2nncn12 [Example 288, 8-(1,3-dimethyl-1H-pyrazol-5-yl)-N-(2-fluoro-6-methoxybenzyl)-[1,2,4]triazolo[4,3-a] pyridin-5-amine]
IC50 (EED (1-441)-His protein): 12.7 nM | IC50 [1]: 6.3 nM | IC50 [2]: 23.4 nM

The next lines start with the values.

IC50 (EED (1-441)-His protein): 66.2 nM | IC50 [1]: 59.2 nM | IC50 [2]: 289 nM
SMILES: COc1cc(F)cc(F)c1CNc1ccc(-c2cnccc2C)c2nncn12 [Example 253, N-(2,4-difluoro-6-methoxybenzyl)-8-(4-methylpyridin-3-yl)-[1,2,4]triazolo[4,3-a] pyridin-5-amine]

IC50 (EED (1-441)-His protein): 69 nM | IC50 [1]: 61.3 nM | IC50 [2]: 99.7 nM
SMILES: COc1cccc(F)c1CNc1ccc(-c2cncnc2C(C)C)c2nncn12 [Example 273, N-(2-fluoro-6-methoxybenzyl)-8-(4-isopropylpyrimidin-5-yl)-[1,2,4] triazolo[4,3-a]pyridin-5-amine]

IC50 (EED (1-441)-His protein): 14.6 nM | IC50 [1]: 15.4 nM | IC50 [2]: 25.3 nM
SMILES: COc1cccc(F)c1CNc1ccc(-c2c(C)nn(CC(C)O)c2C)c2nncn12 (stereo not drawn) [Example 274, 1-(4-(5-((2-fluoro-6-methoxybenzyl)amino)-[1,2,4]triazolo[4,3-a]pyridin-8-yl)-3,5-dimethyl-1H-pyrazol-1-yl)propan-2-ol]

IC50 (EED (1-441)-His protein): 23.3 nM | IC50 [1]: 21.6 nM | IC50 [2]: 71.8 nM
SMILES: COc1cccc(F)c1CNc1ccc(-c2c(C)nn(C3CC3)c2C)c2nncn12 [Example 275, 8-(1-cyclopropyl-3,5-dimethyl-1H-pyrazol-4-yl)-N-(2-fluoro-6-methoxybenzyl)-[1,2,4]triazolo[4,3-a] pyridin-5-amine]

IC50 (EED (1-441)-His protein): 14.2 nM | IC50 [1]: 12 nM | IC50 [2]: 32.2 nM
SMILES: COc1cccc(F)c1CNc1ccc(-c2ccnc(C(F)F)c2C)c2nncn12 [Example 277, 8-(2-(difluoromethyl)-3-methylpyridin-4-yl)-N-(2-fluoro-6-methoxybenzyl)-[1,2,4]triazolo[4,3-a]pyridin-5-amine]

IC50 (EED (1-441)-His protein): 11 nM | IC50 [1]: 6.4 nM | IC50 [2]: 27 nM
SMILES: COc1cccc(F)c1CNc1ccc(-c2ccnc(CF)c2C)c2nncn12 [Example 278, N-(2-fluoro-6-methoxybenzyl)-8-(2-(fluoromethyl)-3-methylpyridin-4-yl)-[1,2,4] triazolo[4,3-a]pyridin-5-amine]

IC50 (EED (1-441)-His protein): 23 nM | IC50 [1]: 16.9 nM | IC50 [2]: 124 nM
SMILES: COc1cccc(F)c1CNc1ccc(-c2cc(C(F)(F)F)ncc2C)c2nncn12 [Example 281, N-(2-fluoro-6-methoxybenzyl)-8-(5-methyl-2-(trifluoromethyl)pyridin-4-yl)-[1,2,4]triazolo[4,3-a] pyridin-5-amine]

IC50 (EED (1-441)-His protein): 10.7 nM | IC50 [1]: 8.1 nM | IC50 [2]: 15.7 nM
SMILES: COc1cccc(F)c1CNc1ccc(-c2cn(C(C)C)nc2C)c2nncn12 [Example 282, N-(2-fluoro-6-methoxybenzyl)-8-(1-isopropyl-3-methyl-1H-pyrazol-4-yl)-[1,2,4]triazolo[4,3-a]pyridin-5-amine]

IC50 (EED (1-441)-His protein): 9.6 nM | IC50 [1]: 10.5 nM | IC50 [2]: 44.4 nM
SMILES: COc1cccc(F)c1CNc1ccc(-c2cnc(C3CC3)nc2C)c2nncn12 [Example 284, 8-(2-cyclopropyl-4-methylpyrimidin-5-yl)-N-(2-fluoro-6-methoxybenzyl)-[1,2,4] triazolo[4,3-a]pyridin-5-amine]

IC50 (EED (1-441)-His protein): 28.4 nM | IC50 [1]: 30.3 nM | IC50 [2]: 128 nM
SMILES: COc1cccc(F)c1CNc1ccc(-c2cnn(C(C)C)c2C)c2nncn12 [Example 289, N-(2-fluoro-6-methoxybenzyl)-8-(1-isopropyl-5-methyl-1H-pyrazol-4-yl)-[1,2,4] triazolo[4,3-a]pyridin-5-amine]
